Each structure is given as a SMILES string.

The data set is described as follows: HILIC, Waters ACQUITY UPLC BEH Amide, 100 × 2.1 mm, 1.7 µm; A: water + 0.125% formic acid + 10 mM ammonium formate; B: 5% water + 95% acetonitrile + 0.125% formic acid + 10 mM ammonium formate; gradient (min/%B) 0/100 2/100 7.7/70 9.5/40 10.25/30 12.75/100 17/100. To be noted: stereoisomer not certain.
With `CNC1CCC(c2ccc(Cl)c(Cl)c2)c2ccccc21` (stereo not given) [Sertraline], the LC retention time came to 2.74 min. Then `NC(=O)CCC(NC(=O)C1CCCN1)C(=O)O` (stereo not given) [Pro-Gln], with 8.75 min. Then `CC(=O)OC12COC1CC(O)C1(C)C(=O)C(O)C3=C(C)C(OC(=O)C(O)C(NC(=O)OC(C)(C)C)c4ccccc4)CC(O)(C(OC(=O)c4ccccc4)C21)C3(C)C` (stereo not given) [Docetaxel], with 1.34 min; and `CC(CO)CCNc1ncnc2nc[nH]c12` (stereo not given) [Dihydrozeatin], with 2.99 min; and `CN(CCO)CC(O)Cn1cnc2c1c(=O)n(C)c(=O)n2C` (stereo not given) [Xanthinol], with 6.01 min. Take `CCCCCCCCCC=O` [Decanal]: the LC retention time was 2.17 min.

`CC1C(c2ccccc2)OCCN1C` (stereo not given) [Phendimetrazine]: the LC retention time was determined as 2.52 min.

As for `NC(Cc1cccc(O)c1)C(=O)O` (stereo not given) [3-Hydroxyphenylalanine], the LC retention time was 7.44 min. The same measure for `CN(CC(=O)O)C(=N)N` [Creatine]: 8.15 min. Then `Cc1nccn1CC1CCc2c(c3ccccc3n2C)C1=O` (stereo not given) [Ondansetron], with 2.83 min; and `Cc1ccc(-c2nc3ccc(C)cn3c2CC(=O)N(C)C)cc1` [Zolpidem], with 1.62 min; and `NCC(O)c1ccccc1` (stereo not given) [Phenylethanolamine], with 5.51 min.

Regarding `CC(NC(C)(C)C)C(=O)c1cccc(Cl)c1` (stereo not given) [Bupropion], the LC retention time is 2.22 min. For the molecule `CC(C)c1ccc2c(c1)c(SC(C)(C)C)c(CC(C)(C)C(=O)O)n2Cc1ccc(Cl)cc1` [MK-886], the LC retention time is 0.96 min.

As for `CCN(CC)C(=O)C1(c2ccccc2)CC1CN` (stereo not given) [Milnacipran], the LC retention time came out at 3.23 min. `Nc1nc2c(ncn2C2CC(OP(=O)(O)O)C(CO)O2)c(=O)[nH]1` (stereo not given) [2'-Deoxyguanosine 3'-monophosphate]: the LC retention time amounted to 9.43 min. In the case of `Clc1ccccc1CN1CCc2sccc2C1` [Ticlopidine], the LC retention time came out at 1.12 min. Then `CNCCCCOc1ccccc1Cc1ccccc1` [Bifemelane], with 2.46 min; and `CC(C)CC(N)C(=O)NC(C)C(=O)O` (stereo not given) [Leu-Ala], with 5 min. For the molecule `NC(CCC(=O)NC(CSSCC(NC(=O)CCC(N)C(=O)O)C(=O)NCC(=O)O)C(=O)NCC(=O)O)C(=O)O` (stereo not given) [Glutathione (oxidized)], the LC retention time came out at 10.2 min. Then `Nc1ncnc2c1[nH]c(=O)n2C1CC(O)C(CO)O1` (stereo not given) [8-Oxo-2-deoxyadenosine], with 5.11 min; and `CCCSc1ccc2nc(NC(=O)OC)[nH]c2c1` [Albendazole], with 1.22 min.

In the case of `Cc1occc(=O)c1O` [Maltol], the LC retention time is 1.32 min. With `CC(C)CC(=O)NCC(=O)O` [N-Isovalerylglycine], the LC retention time was 2.94 min. Regarding `COC(=O)CN` [Methylglycinate], the LC retention time turned out to be 5.29 min. Then `Nc1ncnc2c1ncn2C1OC(COP(=O)(O)O)C(O)C1O` (stereo not given) [Adenosine 5'-monophosphate], with 8.88 min; and `C=CC1=C(C(=O)O)N2C(=O)C(NC(=O)C(=NO)c3csc(N)n3)C2SC1` (stereo not given) [Cefdinir], with 6.94 min.

As to `Cn1nnc2c(C(N)=O)ncn2c1=O` [Temozolomide], the LC retention time worked out at 1.33 min. As to `CC(CN)C(=O)O` (stereo not given) [3-Aminoisobutyric acid], the LC retention time amounted to 7.4 min.

Turning to `Cn1cnc2c(ncn2C2OC(CO)C(O)C2O)c1=N` (stereo not given) [1-Methyladenosine], the LC retention time was found to be 7.46 min. The same measure for `COc1cc(C=CC=O)ccc1O` [Coniferylaldehyde]: 1.14 min; for `O=C(O)CCCCCCCCCCCCCCCCC(=O)O` [Octadecanedioic acid]: 1.24 min. Turning to `CN(CCCN1c2ccccc2CCc2ccccc21)CC(=O)c1ccc(Cl)cc1` [Lofepramine], the LC retention time is 1.91 min. The same measure for `CC(=O)n1ccnc1` [1-Acetylimidazole]: 1.37 min; for `OCC1OC(OC2C(O)OC(CO)C(O)C2O)C(O)C(O)C1O` (stereo not drawn) [2-alpha-Mannobiose]: 9.47 min; for `COc1ccc2[nH]cc(CC(=O)O)c2c1` [5-Methoxy-3-indoleacetic acid]: 1.32 min. The same measure for `CCCc1nc(C)c2c(=O)[nH]c(-c3cc(S(=O)(=O)N4CCN(CC)CC4)ccc3OCC)nn12` [Vardenafil]: 1.7 min; for `Nc1nc2c(ncn2C2CC(O)C(COP(=O)(O)O)O2)c(=O)[nH]1` (stereo not given) [2'-Deoxyguanosine 5'-monophosphate]: 9.25 min. Consider `COC(=O)c1cc(O)c(O)c(O)c1` [Methylgallate], for which the LC retention time is 1.43 min. For `NC(CCC(=O)O)C(=O)NC(Cc1ccccc1)C(=O)O` (stereo not given) [Glu-Phe], the LC retention time worked out at 8.2 min. The same measure for `CCCCCCCCC=CCCCCCCCC(=O)OCC(O)CO` (stereo not given) [Monoolein]: 1.19 min; for `NC(CCC(=O)NC(CS)C(=O)NCC(=O)O)C(=O)O` (stereo not given) [Glutathione (reduced)]: 9.07 min; for `NCCCCC(NC(=O)C(N)CCC(=O)O)C(=O)O` (stereo not given) [Glu-Lys]: 9.9 min. Regarding `CC(C)=CCCC(C)=CC(=O)O` [Geranic acid], the LC retention time amounted to 1.3 min. Then `O=C1C2CCCCC2C(=O)N1CCCCN1CCN(c2nsc3ccccc23)CC1` (stereo not given) [Perospirone], with 2.14 min; and `CC(OP(=O)(O)O)C(N)C(=O)O` (stereo not given) [o-Phosphothreonine], with 9.74 min. Take `NC(N)=NCCCCC(N)C(=O)O` (stereo not given) [Homoarginine]: the LC retention time worked out at 9.34 min.

`CCC1=CC2CN(C1)Cc1c([nH]c3ccccc13)C(C(=O)OC)(c1cc3c(cc1OC)N(C)C1C(O)(C(=O)OC)C(OC(C)=O)C4(CC)C=CCN5CCC31C54)C2` (stereo not given) [Vinorelbine]: the LC retention time is 4.76 min. The same measure for `COc1cc(N)c(Cl)cc1C(=O)NC1CN2CCC1CC2` (stereo not given) [Zacopride]: 4.66 min. With `CC(C)CC(NC(=O)C(C)N)C(=O)O` (stereo not given) [Ala-Leu], the LC retention time worked out at 7.6 min. Then `O=c1cc(-c2ccccc2)oc2ccc(O)cc12` [6-Hydroxyflavone], with 1.26 min; and `CC1CC2C3CC(F)C4=CC(=O)C(Cl)=CC4(C)C3(F)C(O)CC2(C)C1(O)C(=O)CO` (stereo not given) [Halometasone], with 1.12 min; and `O=C1CN=C(c2ccccc2)c2cc([N+](=O)[O-])ccc2N1` [Nitrazepam], with 1.2 min. `CN1C2CCC1CC(OC(=O)c1c[nH]c3ccccc13)C2` (stereo not given) [Tropisetron]: the LC retention time stood at 3.81 min. The same measure for `CCCC(C)(COC(N)=O)COC(N)=O` [Meprobamate]: 1.25 min. Then `COc1ccc(OC)c(C(O)C(C)N)c1` (stereo not given) [Methoxamine], with 4.75 min. The same measure for `CC(=O)NC1C(O)CC(O)(C(=O)O)OC1C(O)C(O)CO` (stereo not given) [N-Acetylneuraminic acid]: 9.26 min.

Take `CCC1(O)C(=O)OCc2c1cc1n(c2=O)Cc2cc3c(CN(C)C)c(O)ccc3nc2-1` (stereo not given) [Topotecan]: the LC retention time was found to be 5.72 min.

Take `Cn1cncc1CC(N)C(=O)O` (stereo not given) [3-Methylhistidine]: the LC retention time was found to be 9.41 min. As for `Cc1cn(C2OC(CO)C(O)C2O)c(=O)[nH]c1=O` (stereo not given) [5-Methyluridine], the LC retention time worked out at 4.19 min. Then `OCC1OC(Oc2cc(O)cc(C=Cc3ccc(O)cc3)c2)C(O)C(O)C1O` (stereo not drawn) [trans-Piceid], with 4.64 min; and `CC(OC1C(N)C(O)OC(CO)C1O)C(=O)O` (stereo not given) [Muramic acid], with 8.28 min. The same measure for `CN(C)CCOc1ccc(C(=C(CCCl)c2ccccc2)c2ccccc2)cc1` [Toremifene]: 1.89 min; for `Cc1cn(C2OC(CO)C(O)C2O)c(=S)[nH]c1=O` (stereo not given) [5-Methyl-2-thiouridine]: 1.98 min; for `CC(=O)NO` [Acetohydroxamic acid]: 2.94 min.

As to `CC(C=CC1(O)C(C)=CC(=O)CC1(C)C)=CC(=O)O` (stereo not given) [Abscisic acid], the LC retention time was 1.33 min. As to `COc1ccc(-c2oc3c(CC=C(C)C)c(OC4OC(CO)C(O)C(O)C4O)cc(O)c3c(=O)c2OC2OC(C)C(O)C(O)C2O)cc1` (stereo not given) [Icarin], the LC retention time was found to be 4.74 min.

With `CC(C)C(NC(=O)C(N)CCC(=O)O)C(=O)NC(Cc1ccccc1)C(=O)O` (stereo not drawn) [Glu-Val-Phe], the LC retention time was determined as 7.66 min. The same measure for `CCC(C)C(=O)OC1CCC=C2C=CC(C)C(CCC3CC(O)CC(=O)O3)C21` (stereo not given) [Mevastatin]: 0.99 min; for `CS(=O)CCC(N)C(=O)O` (stereo not given) [Methioninesulfoxide]: 8.62 min; for `CCC1(CC)C(=O)NCC(C)C1=O` (stereo not given) [Methyprylon]: 1.18 min. Take `Cc1ncsc1CCO` [4-Methyl-5-thiazoleethanol]: the LC retention time turned out to be 1.21 min. As for `Cc1cccc(C)c1NC(=O)C1CCCCN1C` (stereo not given) [Mepivacaine], the LC retention time is 2.96 min.

For the molecule `NC(CCC(=O)NC(CSSCC(N)C(=O)O)C(=O)NCC(=O)O)C(=O)O` [L-Cysteine-glutathione disulfide], the LC retention time turned out to be 10.2 min. Then `COc1ccc2c3c1OC1C(=O)CCC4(O)C(C2)N(C)CCC314` (stereo not given) [Oxycodone], with 4.58 min; and `O=Cc1ccc(O)cc1` [4-Hydroxybenzaldehyde], with 1.18 min; and `C=C1CCOC1=O` [alpha-Methylene-gamma-butyrolactone], with 1.05 min. Then `CC(=O)NC1C(O)OC(CO)C(O)C1O` (stereo not given) [N-Acetylmannosamine], with 7.01 min.

Take `NCCS` [2-Aminoethanethiol]: the LC retention time turned out to be 2.05 min. Then `NC(Cc1ccc(O)c(O)c1)C(=O)O` (stereo not given) [3,4-Dihydroxyphenylalanine], with 8.31 min.

For the origin of these results see the RepoRT retention time repository.
